# Measurements from ChEMBL document CHEMBL1149115, “Unraveling the active conformation of urotensin II” (J Med Chem, 2004).
# Assay: Effective concentration of compound in producing vasoconstrictions was determined
# Assay type: functional
row,SMILES,pD2
1,CC(C)[C@H](NC(=O)[C@@H]1CSSC[C@@H](NC(=O)[C@H](CC(=O)O)NC(=O)[C@H]2CCCN2C(=O)[C@@H](NC(=O)[C@@H](N)CCC(=O)O)[C@@H](C)O)C(=O)N[C@H](Cc2ccccc2)C(=O)N[C@@H](Cc2c[nH]c3ccccc23)C(=O)N[C@H](CCCCN)C(=O)N[C@@H](Cc2ccc(O)cc2)C(=O)N1)C(=O)O,8.3
2,CC(C)[C@H](NC(=O)[C@@H]1CSSC[C@@H](NC(=O)[C@@H](N)CC(=O)O)C(=O)N[C@@H](Cc2ccccc2)C(=O)N[C@@H](Cc2c[nH]c3ccccc23)C(=O)N[C@@H](CCCCN)C(=O)N[C@@H](Cc2ccc(O)cc2)C(=O)N1)C(=O)O,8.6
3,CC(C)[C@H](NC(=O)[C@@H]1NC(=O)[C@H](Cc2ccc(O)cc2)NC(=O)[C@H](CCCCN)NC(=O)[C@H](Cc2c[nH]c3ccccc23)NC(=O)[C@H](Cc2ccccc2)NC(=O)[C@@H](NC(=O)[C@@H](N)CC(=O)O)CSSC1(C)C)C(=O)O,6.7
4,CC(C)[C@H](NC(=O)[C@@H]1CSSC(C)(C)[C@@H](NC(=O)[C@@H](N)CC(=O)O)C(=O)N[C@@H](Cc2ccccc2)C(=O)N[C@@H](Cc2c[nH]c3ccccc23)C(=O)N[C@@H](CCCCN)C(=O)N[C@@H](Cc2ccc(O)cc2)C(=O)N1)C(=O)O,9.6
5,CC(C)[C@H](NC(=O)[C@@H]1NC(=O)[C@H](Cc2ccc(O)cc2)NC(=O)[C@H](CCCCN)NC(=O)[C@H](Cc2c[nH]c3ccccc23)NC(=O)[C@H](Cc2ccccc2)NC(=O)[C@H](NC(=O)[C@@H](N)CC(=O)O)C(C)(C)SSC1(C)C)C(=O)O,8.2
6,CC(C)[C@H](NC(=O)[C@@H]1CCSSC[C@H](NC(=O)[C@@H](N)CC(=O)O)C(=O)N[C@@H](Cc2ccccc2)C(=O)N[C@@H](Cc2c[nH]c3ccccc23)C(=O)N[C@@H](CCCCN)C(=O)N[C@@H](Cc2ccc(O)cc2)C(=O)N1)C(=O)O,< 6.5
